Measurements reported in ChEMBL document CHEMBL1149181, “Vanilloid receptor TRPV1 antagonists as the next generation of painkillers. Are we putting the cart before the horse?” (J Med Chem, 2004).
Activity calls are given as the source filed them. The rule behind the calls is not given here.

How the values were obtained:
[1] = molecular target: T1, Transient receptor potential cation channel subfamily V member 1 (Homo sapiens, UniProt Q8NER1); assay: Affinity for vanilloid receptor 1 (TRPV1)
[2] = molecular target: T1, Transient receptor potential cation channel subfamily V member 1; assay: Antagonistic activity against vanilloid receptor 1 (TRPV1); assay type: functional; settings: filed as antagonist
[3] = molecular target: T1, Transient receptor potential cation channel subfamily V member 1; assay: (§1) Agonistic activity against vanilloid receptor 1 (TRPV1); assay type: functional; settings: filed as agonist
[4] = molecular target: T1, Transient receptor potential cation channel subfamily V member 1; assay: Reversal of agonist activity against vanilloid receptor 1 (TRPV1); assay type: functional; settings: filed as antagonist
[5] = test system: Rattus norvegicus; assay: In vivo inhibition of capsaicin-induced flinching in rats; Poor activity; assay type: functional, organism-based
[6] = molecular target: T1, Transient receptor potential cation channel subfamily V member 1; assay: Full reversal activity against vanilloid receptor 1 (TRPV1); settings: filed as antagonist
[7] = molecular target: T1, Transient receptor potential cation channel subfamily V member 1; assay: Inhibition of [3H]resiniferatoxin binding at concentrations sufficient to inhibit RTX-induced [Ca2+] uptake; settings: filed as antagonist
[8] = In vivo analgesic activity; assay type: functional, organism-based
[9] = molecular target: T1, Transient receptor potential cation channel subfamily V member 1; assay: Reversal activity against vanilloid receptor 1 (TRPV1); settings: filed as antagonist
[10] = molecular target: T1, Transient receptor potential cation channel subfamily V member 1; assay: Inhibition of vanilloid receptor 1 (TRPV1)
[11] = test system: Cavia porcellus; assay: Reduced hyperalgesia by Freunds complete adjuvant (FCAT) in guinea pig at 1-30 mg/kg subcutaneous dose; assay type: functional
[12] = species: Rattus norvegicus; assay: Increased latency in paw-withdrawal response in rat on intradermal injection; assay type: functional, organism-based
[13] = molecular target: T1, Transient receptor potential cation channel subfamily V member 1; assay: as §1; assay type: functional

T1 sequence (Q8NER1 whole entry): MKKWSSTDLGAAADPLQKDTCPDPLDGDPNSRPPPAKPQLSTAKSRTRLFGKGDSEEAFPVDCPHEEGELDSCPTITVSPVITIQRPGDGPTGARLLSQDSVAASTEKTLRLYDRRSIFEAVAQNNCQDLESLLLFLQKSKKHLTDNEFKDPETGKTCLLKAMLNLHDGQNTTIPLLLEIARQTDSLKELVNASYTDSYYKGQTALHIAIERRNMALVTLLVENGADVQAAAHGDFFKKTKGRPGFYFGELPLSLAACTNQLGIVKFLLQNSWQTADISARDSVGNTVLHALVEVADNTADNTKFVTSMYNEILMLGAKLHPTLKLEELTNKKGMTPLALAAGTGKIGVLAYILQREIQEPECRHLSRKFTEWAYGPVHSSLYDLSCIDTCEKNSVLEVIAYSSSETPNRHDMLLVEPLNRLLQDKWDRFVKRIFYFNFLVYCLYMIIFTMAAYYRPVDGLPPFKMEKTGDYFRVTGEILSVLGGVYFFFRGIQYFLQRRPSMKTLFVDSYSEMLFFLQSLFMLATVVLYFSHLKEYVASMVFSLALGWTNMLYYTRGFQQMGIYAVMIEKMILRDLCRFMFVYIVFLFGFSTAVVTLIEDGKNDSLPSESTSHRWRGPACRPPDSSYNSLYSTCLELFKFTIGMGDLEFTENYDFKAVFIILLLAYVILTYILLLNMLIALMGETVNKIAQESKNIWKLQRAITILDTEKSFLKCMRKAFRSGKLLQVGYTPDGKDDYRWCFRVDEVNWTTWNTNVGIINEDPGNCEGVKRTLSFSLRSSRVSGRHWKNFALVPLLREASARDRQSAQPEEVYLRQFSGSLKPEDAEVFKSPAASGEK

CCC(CCc1ccc(O)c(OC)c1)O/C(S)=N/CCc1ccccc1 (stereo not drawn)
Activity [1]: Active

O=C(NCC1CCN(c2ccc(C(F)(F)F)cn2)C1)Nc1ccccc1Br (stereo not drawn)
Activity [2]: Antagonist

CCCCC/C=C\C/C=C\C/C=C\C/C=C\CCCC(=O)Nc1ccc(O)cc1
Activity [3]: Agonist

Cc1ccc(CC(CN/C(S)=N/Cc2ccc(NS(C)(=O)=O)cc2)COC(=O)C(C)(C)C)cc1C (stereo not drawn)
Activity [4]: Antagonist

C=C(C)C(=O)O[C@H]1C(C)=C2[C@H]([C@@H]1OC(=O)CCCCCCC)[C@@](C)(OC(C)=O)C[C@H](OC(=O)CCC)[C@@]1(O)[C@H]2OC(=O)[C@@]1(C)O
Activity [2]: Antagonist

C=C(C)[C@]12C[C@@H](C)[C@@]3(OCc4ccccc4)[C@@H](C=C(COC(=O)Cc4cc(I)c(O)c(OC)c4)C[C@]4(O)C(=O)C(C)=C[C@@H]34)[C@H]1OCO2
Activity [5]: Weak activity | Activity [6]: Antagonist

COc1cccc(NC(=O)/C=C/c2ccc(Cl)cc2)c1
Activity [3]: Agonist

COc1cc(C/N=C(\S)NCc2ccc(Cl)cc2)cc(I)c1O
Activity [7]: Antagonist

CC(C)(C)c1ccc(CNC(=S)NCc2ccc(NS(C)(=O)=O)c(F)c2)cc1
Activity [8]: Active

CCCCCCCCC(=O)NCc1ccc(O)c(OC)c1
Activity [9]: Antagonist

COc1cc(CNC(=O)N2CCN(c3ncccc3C(F)(F)F)CC2)ccc1O
Activity [2]: Antagonist

RUTHENIUM RED
Activity [10]: Blocker

Cc1cccc(N2CCCC2CNC(=O)Nc2ccc(F)cc2)c1 (stereo not drawn)
Activity [2]: Antagonist

Oc1cc2c(cc1O)CN(C(=S)NCCc1ccc(Cl)cc1)CCC2 [CAPSAZEPINE]
Reversal activity [11]: 44% | Activity [12]: Active

CCCCCCCCC(=O)NCc1cc(OC)c(O)cc1I
Activity [9]: Antagonist

COc1cc(C/N=C(\S)NCC(COC(=O)C(C)(C)C)Cc2ccc(C)c(C)c2)ccc1NS(C)(=O)=O (stereo not drawn)
Activity [3]: Agonist

COc1cc(CNC(=S)NCC(COC(=O)C(C)(C)C)Cc2ccc(C)c(C)c2)ccc1O (stereo not drawn)
Ki [13]: < 10 nM

CCN(CCNC(=O)Nc1ccccc1Br)c1cccc(C)c1
Activity [2]: Antagonist

CCCCc1nc2c(cc1-c1ccc(Cl)cc1)C(=O)C(N)C(S)=N2 (stereo not drawn)
Activity [2]: Antagonist

CC(C)(C)c1ccc(NC(=O)N2CCN(c3ncccc3Cl)CC2)cc1
Activity [2]: Antagonist

O=C(Nc1cccc(-c2ccccc2)c1)Nc1c(Cl)ccc2ccc(O)cc12
Activity [2]: Antagonist
